Experiments:
Assay in all cases: relative viability (nuclei count vs DMSO), 5 days (fraction); higher = more cells survive
Alpelisib + Dasatinib = compound: Cc1nc(NC(=O)N2CCC[C@H]2C(N)=O)sc1-c1ccnc(C(C)(C)C(F)(F)F)c1 [Alpelisib] + Cc1nc(Nc2ncc(C(=O)Nc3c(C)cccc3Cl)s2)cc(N2CCN(CCO)CC2)n1 [Dasatinib] (partner 0.075 µM)
Method in brief: (§1)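 For relative viability, nuclei counts in treated wells were divided by those in vehicle wells. Lung cancer cell lines had been pin-tool dosed in 1536-well plates the day after seeding and cultured for 5 days, then fixed and stained in one step (final 0.05% Triton X-100, 1% formaldehyde, 1 ug/ml Hoechst) and imaged at 4×. Doses were one drug alone or a fixed anchor-drug dose plus five library-drug doses (not always all listed) in √10 steps, and values are duplicate-plate medians.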

Vemurafenib + Alpelisib = compound: CCCS(=O)(=O)Nc1ccc(F)c(C(=O)c2c[nH]c3ncc(-c4ccc(Cl)cc4)cc23)c1F [Vemurafenib] + Cc1nc(NC(=O)N2CCC[C@H]2C(N)=O)sc1-c1ccnc(C(C)(C)C(F)(F)F)c1 [Alpelisib] (partner 2 µM)
Method in brief: as §1

OSI-027 + Palbociclib = compound: COc1cccc2cc(-c3nc([C@H]4CC[C@H](C(=O)O)CC4)n4ncnc(N)c34)[nH]c12 [OSI-027] + CC(=O)c1c(C)c2cnc(Nc3ccc(N4CCNCC4)cn3)nc2n(C2CCCC2)c1=O [Palbociclib] (partner 0.5 µM)
Method in brief: as §1

Vemurafenib + Phenformin = compound: CCCS(=O)(=O)Nc1ccc(F)c(C(=O)c2c[nH]c3ncc(-c4ccc(Cl)cc4)cc23)c1F [Vemurafenib] + N=C(N)NC(=N)NCCc1ccccc1 [Phenformin] (partner 250 µM)
Method in brief: as §1

Row | Cell Line | relative viability (Alpelisib + Dasatinib; first compound 0.04 µM) | relative viability (Alpelisib + Dasatinib; first compound 0.1265 µM) | relative viability (Alpelisib + Dasatinib; first compound 0.4 µM) | relative viability (Alpelisib + Dasatinib; first compound 1.265 µM) | relative viability (Alpelisib + Dasatinib; first compound 4 µM) | relative viability (Vemurafenib + Alpelisib; first compound 0.03162 µM) | relative viability (Vemurafenib + Alpelisib; first compound 0.1 µM) | relative viability (Vemurafenib + Alpelisib; first compound 0.3162 µM) | relative viability (Vemurafenib + Alpelisib; first compound 1 µM) | relative viability (OSI-027 + Palbociclib; first compound 0.01 µM) | relative viability (OSI-027 + Palbociclib; first compound 0.03162 µM) | relative viability (OSI-027 + Palbociclib; first compound 0.1 µM) | relative viability (OSI-027 + Palbociclib; first compound 0.3162 µM) | relative viability (OSI-027 + Palbociclib; first compound 1 µM) | relative viability (Vemurafenib + Phenformin; first compound 0.03162 µM) | relative viability (Vemurafenib + Phenformin; first compound 0.1 µM) | relative viability (Vemurafenib + Phenformin; first compound 0.3162 µM) | relative viability (Vemurafenib + Phenformin; first compound 1 µM)
1 | NCI-H23 | 0.818 | 0.65 | 0.702 | 0.535 | 0.418 | 0.626 | 0.642 | 0.912 | 0.664 | 0.439 | 0.552 | 0.414 | 0.25 | 0.237 | 0.702 | 0.797 | 0.728 | 0.723
2 | NCI-H322M | 0.225 | 0.223 | 0.257 | 0.253 | 0.273 | 0.845 |  | 0.872 | 0.707 | 0.489 | 0.436 | 0.478 | 0.438 | 0.483 | 0.714 |  |  | 0.724
3 | NCI-H358 | 0.157 | 0.176 | 0.164 | 0.112 | 0.121 | 0.872 |  | 1.16 | 0.809 | 0.134 | 0.139 | 0.125 | 0.103 | 0.127 | 0.282 | 0.19 | 0.448 | 0.455
4 | NCI-H441 | 0.525 | 0.72 | 0.562 | 0.311 | 0.358 | 0.791 | 0.741 |  | 0.534 | 0.165 | 0.205 | 0.178 | 0.146 | 0.166 | 0.952 | 0.856 | 0.739 | 0.744
5 | NCI-H460 | 0.42 | 0.484 | 0.457 | 0.245 | 0.174 | 0.349 | 0.357 | 0.631 | 0.593 | 0.18 | 0.186 | 0.186 | 0.158 | 0.092 | 0.495 | 0.52 | 0.316 | 0.52
6 | NCI-H520 | 0.184 | 0.218 | 0.153 | 0.174 | 0.149 | 0.979 | 1.05 | 0.94 | 0.793 | 0.204 | 0.18 | 0.22 | 0.163 | 0.145 | 0.564 | 0.702 | 0.435 | 0.496
7 | NCI-H647 | 0.228 | 0.163 | 0.214 | 0.0992 | 0.123 | 0.898 | 1.12 | 0.995 | 0.891 | 0.389 | 0.371 | 0.351 | 0.354 | 0.155 | 0.439 | 0.404 | 0.446 | 0.376
8 | NCI-H650 | 0.417 | 0.38 | 0.449 | 0.395 | 0.288 | 0.954 | 1.12 | 0.621 | 0.781 | 0.333 | 0.35 | 0.302 | 0.29 | 0.205 | 0.437 | 0.443 |  | 0.37
9 | NCI-H661 | 0.845 | 0.745 | 0.8 | 0.569 | 0.526 | 0.43 | 0.478 | 0.409 | 0.58 | 0.375 | 0.424 | 0.368 | 0.347 | 0.301 | 0.251 | 0.289 | 0.258 | 0.307
10 | NCI-H727 | 0.424 | 0.326 | 0.476 | 0.313 | 0.272 | 0.519 | 0.49 | 0.849 | 0.574 | 0.655 | 0.65 | 0.752 | 0.622 | 0.625 | 0.508 |  | 0.718 | 0.559
11 | NCI-H838 | 0.275 | 0.375 | 0.296 | 0.228 | 0.215 | 0.879 | 0.957 |  | 1.04 | 0.203 | 0.195 | 0.191 | 0.165 | 0.168 | 0.506 | 0.581 |  | 0.672
12 | NCI-H1355 | 0.708 | 0.551 | 0.699 | 0.434 | 0.443 | 0.823 | 0.689 | 0.797 | 0.88 | 0.4 | 0.392 | 0.317 | 0.264 | 0.257 | 0.424 | 0.426 | 0.36 | 0.487
13 | NCI-H1395 | 0.461 | 0.376 | 0.457 | 0.356 | 0.394 | 1.01 | 1.01 |  | 1.09 | 0.654 | 0.609 | 0.529 | 0.45 | 0.505 | 0.425 | 0.433 |  | 0.495
14 | NCI-H1437 | 0.368 | 0.338 | 0.358 | 0.309 | 0.342 | 0.915 | 0.96 | 0.842 | 0.901 | 0.286 | 0.324 | 0.309 | 0.357 | 0.22 | 0.258 | 0.315 | 0.29 | 0.309
15 | NCI-H1651 | 0.357 | 0.463 | 0.445 | 0.412 | 0.293 | 0.903 | 0.831 | 0.896 | 0.909 | 0.534 | 0.502 | 0.497 | 0.459 | 0.393 | 0.318 | 0.295 | 0.325 | 0.311
